One may read the IC50 as the point on the concentration scale where inhibition reaches its midpoint. Higher therefore signals weaker potency.

The structures appear in SMILES notation.

This assay addresses Human Leukocyte Lipoxygenase. The assay can be described thus: Human Leukocyte Lipoxygenase Assay (LDA-H / LDAH). The class given is biochemical. The following applies: 50% reduction of reaction rate vs control, E -number means X 10^-no. As for the experimental part:
Human Leukocyte Lipoxygenase Assay (LDA-H)
Whole blood is collected from normal volunteers and spun in a refrigerated centrifuge for four minutes at 1°-6° C. at 3800 g. The buffy coat is manually separated and washed twice with chilled 0.83% NH4 Cl and centrifuged at 1000 RPM for ten minutes at 4° C. The white cell is suspended in culture media-EMEM supplemented with 6% Agamma human serum, tricine buffer, and neomycin and recentrifuged at 1000 g to yield a pellet containing the leukocytes used for the preparation of the acetone pentane powder.
The acetone-pentane powder is prepared utilizing a modification of the procedure reported for human platelet lipoxygenase. See Siegel, et al, Arachidonate Metabolism via Lipoxygenase and 12-L-hydroperoxy-5-Eicostetraenoic acid Peroxidase Sensitive to Antiinflammatory Drugs, Proc. Natl. Acad. Sci., USA 77:308, 1980 and D. P. Wallach and V. R. Brown, a novel Preparation of Human Platlet Lipoxygenase, Biochem. Biophys. Acta. 663:361, 1981. Buffy coat prepared above is resuspended in 5-7 volumes of cold 0.1M Tris buffer, pH 7.4 containing 0.154M NaCl. The suspension is centrifuged at 13,300 g for ten minutes at 4° C. The resultant pellet was retained, resuspended in five volumes of cold acetone, recentrifuged at 13,300 g and resuspended in five volumes of cold pentane. The pentane suspension is centrifuged for ten minutes at 13,300 g to give a pellet which is dried in the cold under vacuum with periodic pulverization. The dry powder is stable for several weeks when stored at -88° C.
Enzyme stock solution is prepared in the following manner. About 15 mg of the acetone-pentane powder sis suspended in 4 ml of cold tris buffer (0.1M, pH 7.4), allowed to stand for five minutes, and homogenized thorougly. The homogenate is sonicated three times for 15 seconds each time, diluted to 7 ml with cold tris buffer (0.1M, pH 7.4), and centrifuged at 4° C. for 60 minutes at 13,300 g. The supernatent is retained and diluted to a total of 10 ml with cold tris buffer (0.1M, pH 7.4) to give the stck enzyme solution. Additional dilutions of 2-50 fold are done as necessary to locate optimal enzyme reaction rate in the assay described below.
Substrate solution is prepared at 100 μM or 1.0 μM concentrations of arachidonic acid or linoleic acid in 0.1M tris buffer, pH 9.0 containing 20% ethanol.
The enzyme reaction is followed spectrophotometrically by the appearance of a conjugated diene product at 234 nm. The reaction is monitored at 24° C. using a Gilford Model 2600 spectrophotometer. […] The effects of inhibitors on the reaction are compared with control reactions run under indentical conditions. Routinely, each compounds of the present invention is incubated with the enzyme for five minutes prior to addition of substrate to initiate the reaction. Inhibition expressed as IC50 as molar concentration of the compound required to reduce reaction rate to 50% control.

The molecule `COc1ccc(CCc2ccc(NC(=O)c3ccc(C)cc3O)cc2)cc1OC` [Example 46, N-[4-[2-(3,4-Dimethoxyphenyl)ethyl]phenyl]-2-hydroxy-4-methylbenzamide] had an IC50 of 14 µM.
